# System: Mastocarcinoma Cells MCF-7
# Experiment: In vitro antitumor effect on mastocarcinoma cells MCF-7 (Methylene Blue staining, proliferation inhibition)
# Type: cell-based
# Settings: Homo sapiens, MCF7, 72 h; MCF-7 cells, 3 days culture with test compound, RPMI 1640 with 10% serum, Methylene Blue absorbance; read-out: IC50 value (50% cytostatic concentration)
# Experimental: In Vitro Antitumor Effect on Mastocarcinoma Cells MCF-7
# By the use of RPMI 1640 medium (Asahi Tekunogurasu Co., Ltd.) containing 10% serum, 2,000 MCF-7 cells were seeded into a 96-well plate. The cells were cultured for 24 hours under conditions of 37° C. and 5% CO2/95% air, and then a test compound was added thereto, followed by culturing for another 3 days. Cells were stained with a 0.05% Methylene Blue solution and absorbance at 660 nm was measured with a microtiter plate reader (Benchmark Plus, mfd. by BIO RAD Laboratories Inc.). The proliferation inhibition rate was calculated by the following equation and the 50% cytostatic concentration was determined from a dose-response curve. Proliferation inhibition rate=((absorbance for control group−absorbance for drug-treated group)/absorbance for control group))×100
row,SMILES,IC50 [µg/mL]
1,"CC1Cc2nnc(-c3cccc(C(F)(F)F)c3)cc2C(OC(=O)COCC(=O)NCc2cccnc2)C1 (centres unmarked) [Compound No. 16, 5-[(pyridin-3-ylmethyl)aminocarbonylmethoxyacetyl]oxy-7-methyl-3-(3-trifluoromethyl-phenyl)-5,6,7,8-tetrahydrocinnoline]",0.166
2,"CC1Cc2nnc(-c3cccc(C(F)(F)F)c3)cc2C(OC(=O)CCC(=O)O)C1 (centres unmarked) [Compound No. 18, 5-(3-carboxypropanoyl)oxy-7-methyl-3-(3-trifluoromethylphenyl)-5,6,7,8-tetrahydrocinnoline]",0.981
3,"CC1Cc2nnc(-c3cccc(C(F)(F)F)c3)cc2C(OC(=O)CCC(=O)NCc2cccnc2)C1 (centres unmarked) [Compound No. 24, 5-[3-(pyridin-3-ylmethyl)aminocarbonylpropanoyl]oxy-7-methyl-3-(3-trifluoromethylphenyl)-5,6,7,8-tetrahydrocinnoline]",0.098
4,"COCCOC(=O)OC1CC(C)Cc2nnc(-c3cccc(C(F)(F)F)c3)cc21 (centres unmarked) [Compound No. 38, 5-(2-methoxyethoxycarbonyl)oxy-7-methyl-3-(3-trifluoromethylphenyl)-5,6,7,8-tetrahydro-cinnoline]",0.649
5,"CC1Cc2nnc(-c3cccc(C(F)(F)F)c3)cc2C(OC(=O)COCC(=O)NCCN2CCOCC2)C1 (centres unmarked) [Compound No. 15, 5-[(2-(morpholin-4-yl)ethyl)aminocarbonylmethoxyacetyl]oxy-7-methyl-3-(3-trifluoromethylphenyl)-5,6,7,8-tetrahydrocinnoline]",0.171
6,"CC1Cc2nnc(-c3cccc(C(F)(F)F)c3)cc2C(OC(=O)CCCN(C)C)C1 (centres unmarked) [Compound No. 21, 5-(4-dimethylaminobutanoyl)oxy-7-methyl-3-(3-trifluoromethylphenyl)-5,6,7,8-tetrahydro-cinnoline]",0.129
7,"CC1Cc2nnc(-c3cccc(C(F)(F)F)c3)cc2C(OC(=O)CCC(=O)NCCN2CCOCC2)C1 (centres unmarked) [Compound No. 23, 5-[3-[2-(morpholin-4-yl)ethyl]amino-carbonylpropanoyl]oxy-7-methyl-3-(3-trifluoromethylphenyl)-5,6,7,8-tetrahydrocinnoline]",0.128
8,"CC1Cc2nnc(-c3cccc(C(F)(F)F)c3)cc2C(OC(=O)COCC(=O)NCc2ccncc2)C1 (centres unmarked) [Compound No. 17, 5-[(pyridin-4-ylmethyl)aminocarbonylmethoxyacetyl]oxy-7-methyl-3-(3-trifluoromethyl-phenyl)-5,6,7,8-tetrahydrocinnoline]",0.139
9,"COC(=O)CCC(=O)OC1CC(C)Cc2nnc(-c3cccc(C(F)(F)F)c3)cc21 (centres unmarked) [Compound No. 26, 5-(3-methoxycarbonylpropanoyl)oxy-7-methyl-3-(3-trifluoromethylphenyl)-5,6,7,8-tetrahydro-cinnoline]",1.18
10,"CC1Cc2nnc(-c3cccc(C(F)(F)F)c3)cc2C(OC(=O)CCC(=O)NCc2ccncc2)C1 (centres unmarked) [Compound No. 25, 5-[3-(pyridin-4-ylmethyl)aminocarbonylpropanoyl]oxy-7-methyl-3-(3-trifluoromethylphenyl)-5,6,7,8-tetrahydrocinnoline]",0.144
11,"CCOC(=O)CCC(=O)OC1CC(C)Cc2nnc(-c3cccc(C(F)(F)F)c3)cc21 (centres unmarked) [Compound No. 27, 5-(3-ethoxycarbonylpropanoyl)oxy-7-methyl-3-(3-trifluoromethylphenyl)-5,6,7,8-tetrahydro-cinnoline]",0.736
12,"CC1Cc2nnc(-c3cccc(C(F)(F)F)c3)cc2C(OC(=O)N2CCOCC2)C1.Cl (centres unmarked) [Compound No. 43, 7-methyl-5-(morpholin-4-yl-carbonyl)oxy-3-(3-trifluoromethylphenyl)-5,6,7,8-tetrahydrocinnoline hydrochloride]",4.34
13,"CC1Cc2nnc(-c3cccc(C(F)(F)F)c3)cc2C(OC(=O)CCCC(=O)O)C1 (centres unmarked) [Compound No. 19, 5-(4-carboxybutanoyl)oxy-7-methyl-3-(3-trifluoromethylphenyl)-5,6,7,8-tetrahydrocinnoline]",0.908
14,"CC1Cc2nnc(-c3cccc(C(F)(F)F)c3)cc2C(OC(=O)COCC(=O)O)C1 (centres unmarked) [Compound No. 14, 5-(carboxymethoxyacetyl)oxy-7-methyl-3-(3-trifluoromethylphenyl)-5,6,7,8-tetrahydrocinnoline]",0.148
15,"CCOCC(=O)OC1CC(C)Cc2nnc(-c3cccc(C(F)(F)F)c3)cc21 (centres unmarked) [Compound No. 13, 5-ethoxyacetyloxy-7-methyl-3-(3-trifluoromethylphenyl)-5,6,7,8-tetrahydrocinnoline]",0.135

# Same assay, conditions: MCF-7 cells, 3 days culture with test compound, RPMI 1640 with 10% serum, Methylene Blue absorbance
row,SMILES,IC50 value (50% cytostatic concentration) [µg/mL]
1,"CC1Cc2nnc(-c3cccc(C(F)(F)F)c3)cc2C(OC(=O)CC(O)C(=O)O)C1 (centres unmarked) [Compound No. 20, 5-[(3-carboxy-3-hydroxy)propanoyl]oxy-7-methyl-3-(3-trifluoromethylphenyl)-5,6,7,8-tetrahydrocinnoline]",1.339
2,"CC1Cc2nnc(-c3cccc(C(F)(F)F)c3)cc2C(OC(=O)OCCN2CCOCC2)C1 (centres unmarked) [Compound No. 39, 5-(2-(morpholino-4-yl)ethoxycarbonyl)oxy-7-methyl-3-(3-trifluoromethylphenyl)-5,6,7,8-tetrahydrocinnoline]",0.152
